Assay results as given in patent US5304554A, “4-[(alkyl or dialkyl)amino]quinolines and their method of preparation” (Emory University, priority 1992, dated 1994).
Entries after “also recorded” stand apart in the source; their conditions may differ.

What was measured:
[1] = test system: HIV-1 (strain LAV); assay: Anti-HIV-1 activity in human PBM cells infected with HIV-1 (strain LAV), reverse transcriptase readout; assay type: cell-based; details: Human immunodeficiency virus 1, PBMC, read-out: Median effective concentration (EC50) against HIV-1
Procedure: The median effective concentrations (EC50) of selected quinolines against HIV-1 were determined in human blood mononuclear (PBM) cells infected with HIV-1 (strain LAV) as described below. […] It appears that the presence of a heteraromatic substituent at position 2 of the quinoline enhances the anti-HIV-1 activity of the 4-[(alkyl and dialkyl)amino]quinoline derivative. The anti-HIV-1 activity appears to be diminished in compounds with large substituents attached to the 4-amino group.
The following procedure was used to determine the EC50 values for selected compounds.
A. Three-day-old phytohemagglutinin-stimulated PBM cells (10^6 cells/ml) from hepatitis B and HIV-1 seronegative healthy donors were infected with HIV-1 (strain LAV) at a concentration of about 100 times the 50% tissue culture infectious dose (TICD 50) per ml and cultured in the presence and absence of various concentrations of quinolines.
B. Approximately 45 minutes after infection, medium, with the compound to be tested (2 times the final concentration in medium) or without compound, was added to the flasks (5 ml; final volume 10 ml). AZT was used as a positive control.
C. The cells were exposed to HIV (about 2×10^5 dpm/ml, as determined by reverse transcriptase assay) and then placed in a CO2 incubator. HIV-1 (strain LAV) was obtained from the Center for Disease Control, Atlanta, Ga. The methods used for culturing the PBM cells, harvesting the virus and determining the reverse transcriptase activity were those described by McDougal et al. (J. Immun. Meth. 76, 171-183, 1985) and Spira et al. (J. Clin. Meth. 25, 97-99, 1987), except that fungizone was not included in the medium (see Schinazi, et al., Antimicrob. Agents Chemother. 32, 1784-1787 (1988)). The reverse transcriptase activity in the virus-infected control was about 2×10^5 dpm per ml. Blank and uninfected cell control values were about 300 and 1,000 dpm, respectively.
D. On day 6, the cells and media were transferred to a 15 ml tube and centrifuged at about 900 g for 10 minutes. Five ml of supernatant were removed and the virus concentrated by centrifugation at 40,000 rpm for 30 minutes (Beckman 70.1 Ti rotor). The solubilized virus pellet was processed for determination of the levels of reverse transcriptase. Results are expressed in dpm/ml of sampled supernatant.
The median effective (EC50) concentrations for derivatized quinolines, were determined by the median effect method (Antimicrob. Agents Chemother. 30: 491-498, 1986). Briefly, in the median effect method, the percent inhibition of virus, as determined from measurements of reverse transcriptase, is plotted versus the micromolar concentration of compound. The EC50 is the concentration of compound at which there is a 50% inhibition of viral replication.

[2] = test system: Plasmid pBR322 superhelical DNA; details: reference value; cited from earlier work
[3] = Toxicity (growth) in uninfected human peripheral blood mononuclear (PBM) cells; assay type: cell-based; details: 6 days, trypan blue exclusion, read-out: IC50, growth of uninfected PBM cells
Procedure: The toxicity of 6a,6d,8a, and 8c were determined in […] PBM cells (3.8×10^5 cells/ml) cultured in the presence and absence of compounds under conditions similar to those used for the antiviral assay described above but without virus. The cells were counted after 6 days using a hemacytometer and the trypan blue exclusion method, as described by Schinazi et al., Antimicrobial Agents and Chemotherapy, 22(3), 499 (1982).
The effect of the compounds on the growth of uninfected human PBM cells in culture is used as an indicator of the toxicity of the test compound to the normal viability of cells. The IC50 is the concentration of compound which inhibits 50% of normal, uninfected, cell growth.

[4] = test system: DNA; details: Hahn et al. 1966; cited from earlier work
[5] = test system: antimalarial and antiamoebic activity; details: Hahn et al.; cited from earlier work
[6] = infants and children, high dosages; cited from earlier work

With CCN(CCN(C)C)c1cc(-c2ccccn2)nc2ccccc12 [Quinoline 5b] the EC50 [1] was 13.2 µM.
In the case of CC[n+]1c(-c2ccccc2)c2cc(N)ccc2c2ccc(N)cc21 [ethidium], the Unwinding angle [2] is listed as 26.
In the case of CN1CCN(c2cc(-c3ccco3)nc3ccccc23)CC1 [Quinoline 8c], the EC50 [1] is reported as 1 µM and the CC50 at 144 h [3] is reported as over 100 µM.
Work on CN(C)CCNc1cc(-c2cccnc2)nc2ccccc12 [Quinoline 6a] yielded an EC50 [1] of 1.5 µM and a CC50 at 144 h [3] of over 100 µM.
Work on CCN(CCN(C)C)c1cc(-c2cccnc2)nc2ccccc12 [Quinoline 6b] yielded an EC50 [1] of 24.2 µM.
Molecule CN1CCN(c2cc(-c3cccnc3)nc3ccccc23)CC1 [Quinoline 6d] has an EC50 [1] of 1 µM and a CC50 at 144 h [3] of over 100 µM.
For CCN(CC)CCCC(C)Nc1ccnc2cc(Cl)ccc12 (centres unmarked) [chloroquine, 7-chloro-4-(4-diethylamino-1-methylbutylamino)quinoline], the “Inhibition of nucleic acid biosynthesis (in words)” value [4] is given as “inhibits nucleic acid biosynthesis by forming a molecular complex with DNA”, the “Antimalarial and antiamoebic activity (in words)” value [5] is given as “have antimalarial and antiamoebic activity” and the “Adverse effects (in words)” value [6] is given as “Sudden deaths have been reported; also recorded: infants and children are extremely susceptible to adverse effects”.
Molecule CN1CCN(c2cc(-c3ccncc3)nc3ccccc23)CC1 [Quinoline 7c] has an EC50 [1] of 68.2 µM.
CN(C)CCNc1cc(-c2ccco2)nc2ccccc12 [Quinoline 8a] showed an EC50 [1] of 0.9 µM and a CC50 at 144 h [3] of over 100 µM.
With CN1CCN(c2cc(-c3ccccn3)nc3ccccc23)CC1 [Quinoline 5d] the EC50 [1] was 5.5 µM.
CN(C)CCNc1cc(-c2ccccn2)nc2ccccc12 [Quinoline 5a] showed an EC50 [1] of 1.1 µM.
With CN(C)CCNc1cc(-c2cccs2)nc2ccccc12 [Quinoline 9a] the EC50 [1] was 1 µM.
CCN(CCN(C)C)c1cc(-c2cccs2)nc2ccccc12 [Quinoline 9c] gave an EC50 [1] of 32.4 µM.
In the case of CCN(CC)CCCC(C)Nc1c2ccc(Cl)cc2nc2ccc(OC)cc12 (centres unmarked) [quinacrine, 6-chloro-9-[[4-(diethylamino)-1-methylbutyl]amino]-2-methoxyacridine], the “Antimalarial and antiamoebic activity (in words)” value [5] is given as “have antimalarial and antiamoebic activity”.
